Type in all cases: functional
Assay [1] has as its system Mus musculus. In words: Antidepressant activity by injecting 20 mg/kg of compound intraperitoneally and measuring the ability to prevent tetrabenazine (TBZ) induced ptosis in mice. As to conditions: ip, route intraperitoneal.
Assay [2] concerns Mus musculus. In words: Analgesic activity by injecting compound subcutaneously and measuring the inhibition of phenyl-p-benzoquinone-induced writhing (PQW) in mice. As to conditions: sc.
In assay [3] the test system is Mus musculus. In words: Antidepressant activity by injecting compound intraperitoneally and measuring the ability to prevent tetrabenazine (TBZ) induced ptosis in mice. Conditions: ip.
Assay [4] is filed under the species Mus musculus. In words: Antidepressant activity by injecting compound perorally and measuring the ability to prevent tetrabenazine (TBZ) induced ptosis in mice.

Broadly, the inhibition in vivo is the relative decrease from the control value, in per cent. In turn, `CN1CCC2(CC1)CN1c3ccccc3N=Cc3cccc2c31` displayed an inhibition in vivo at 20 mg/kg in assay [1] of 20%.
In general, ED50 refers to the dose at which the effect has come halfway, by size or by number of responders. Low readings indicate greater potency, high ones weaker potency. `CC1=Nc2ccccc2N2CC3(CCN(C)CC3)c3cccc1c32.Cl.Cl`: the ED50 in assay [2] amounted to 4.7 mg/kg. Further, the inhibition in vivo at 20 mg/kg in assay [1] came out at 50%.
In the same order, the values of `CC1Nc2ccccc2N2CC3(CCN(C)CC3)c3cccc1c32.Cl.Cl` (stereo not drawn) are 9.73 mg/kg and 20%.
Turning to `CN1CCC2(CC1)CN(c1ccccc1N)c1ccccc12`, the ED50 came out at 11.6 mg/kg in assay [2], 4 mg/kg in assay [3] and 1.9 mg/kg in assay [4].
